Read-outs that look alike come from different tables or passages of the source.
Tests used:
[1] = Distribution into mouse tissues after PO QD×3; type: in vivo; conditions: mice PO QD×3 25 mg/kg, 6 h after last dose, semi-quantitative
Description: Semi-quantitative analysis of drug content was performed.

[2] = tested on: TNF-α-induced NF-κB activation in A549/NF-κB-Luc cells; test: TNF-α-induced NF-κB luciferase reporter in A549/NF-κB-Luc; type: cell-based; conditions: Homo sapiens
Source text: (b) TNF-α-induced activation of an NF-κB luciferase reporter in the human A549 cell line.
NF-κB is a transcription factor that plays a central role in the regulation of many immune and inflammatory responses. […] The NIH3T3/NF-κB-luc cell line maintains a chromosomal integration of a Firefly luciferase reporter construct regulated by eight copies of the NF-κB response element. The effects of these compounds can be quantified by measuring the value of the NF-κB IC50.

ovalbumin-induced asthma = test: Ovalbumin-induced asthma in mice; type: in vivo, mouse
Source text: Mice were sensitized with an IP injection of ovalbumin and aluminum hydroxide on Day 0 and Day 14 and challenged intranasally with ovalbumin in saline on Days 14, 25, 26, and 27. […] An increase in the number of T cells and B cells was also observed in the vehicle-treated mice.

neurobehavioral measures = test: Neurobehavioral evaluation (FOB) in rats; type: in vivo, rat
Description: One additional group of 10 animals/sex served as the control and received vehicle (sesame oil).
Observations for morbidity, mortality, injury, and availability of food and water were conducted twice daily for all animals. Observations for clinical signs were conducted prior to dosing on Day 1 and following each functional observational battery (FOB) evaluation. FOB evaluations were conducted pre-dose (Day −1) and at approximately 4 and 24 h post-dose. Body weights were measured and recorded pre-dose on Day 1.

[3] = Plasma protein binding (ultracentrifugation), minipig
[4] = tested on: micronucleated polychromatic erythrocytes; test: In vivo micronucleus study
[5] = tested on: NQO1 enzymatic activity in RAW264.7 mouse macrophage cells; test: NQO1 enzymatic activity (modified Prochaska assay) in RAW264.7; type: cell-based; conditions: RAW264.7, 24 h
Description: Consistent with induction of Nrf2 target genes and corresponding protein products, treatment of RAW264.7 mouse macrophage cells for 24 h increased NQO1 enzymatic activity in a dose-dependent manner, with increases evident at 7.8 nM (FIG. 7). NQO1 enzymatic activity was measured by a modified Prochaska assay (Prochaska and Santamaria, Anal Biochem. 169:328-336, 1988, which is incorporated herein by reference).

CYP1A2 = CYP1A2 (Homo sapiens, UniProt P05177); test: in vitro; type: in vitro ADME; conditions: microsomes
Source text: In addition, there was little or no evidence of metabolism-dependent inhibition of any of the enzymes tested.

[6] = tested on: LNCaP prostate cancer cell line; test: Cytotoxicity in combination with 5-fluorouracil in LNCaP; type: cell-based; conditions: RTA 408 0.125 to 0.5 μM
Source text: This evidence supports the concept that RTA 408 could act synergistically with cancer therapeutic agents and may be used in some embodiments to provide greater efficacy in treating cancer patients.

[7] = tested on: bleomycin-induced pulmonary fibrosis; test: Bleomycin-induced pulmonary fibrosis in mice; type: in vivo, mouse; conditions: 10, 30, or 100 mg/kg oral gavage daily for 39 days
[8] = Plasma protein binding (ultracentrifugation), human
pulmonary function = test: Pulmonary evaluation in rats; type: in vivo, rat; conditions: single oral dose up to and including 30 mg/kg
Description: One additional group of 8 animals/sex served as the control and received vehicle (sesame oil).
Observations for mortality, morbidity, injury, and availability of food and water were conducted twice daily for all animals. Clinical observations were conducted prior to dosing, approximately 4 h post-dose, and following completion of the 8-h pulmonary monitoring period. […] Pulmonary function (respiratory rate, tidal volume, and minute volume) was monitored for at least 1 h prior to dosing to establish a baseline and for at least 8 h post-dose.

CYP1A2, sequence (P05177 whole entry): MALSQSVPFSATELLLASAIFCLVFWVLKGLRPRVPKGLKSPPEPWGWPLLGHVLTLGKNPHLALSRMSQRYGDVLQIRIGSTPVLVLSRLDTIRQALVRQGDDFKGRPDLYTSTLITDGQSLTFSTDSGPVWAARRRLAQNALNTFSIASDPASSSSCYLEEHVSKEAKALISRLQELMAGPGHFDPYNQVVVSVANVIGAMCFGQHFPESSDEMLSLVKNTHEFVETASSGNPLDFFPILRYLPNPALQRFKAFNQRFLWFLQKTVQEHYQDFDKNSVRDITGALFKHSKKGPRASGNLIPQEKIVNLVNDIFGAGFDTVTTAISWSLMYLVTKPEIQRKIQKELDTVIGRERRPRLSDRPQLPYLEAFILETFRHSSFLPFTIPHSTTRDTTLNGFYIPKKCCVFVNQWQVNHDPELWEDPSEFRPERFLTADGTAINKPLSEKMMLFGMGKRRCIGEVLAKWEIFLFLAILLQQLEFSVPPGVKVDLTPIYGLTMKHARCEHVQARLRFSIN

## CC1(C)CC[C@]2(NC(=O)C(C)(F)F)CC[C@]3(C)[C@H](C(=O)C=C4[C@@]5(C)C=C(C#N)C(=O)C(C)(C)[C@@H]5CC[C@]43C)[C@@H]2C1 [RTA 408, N-((4aS,6aR,6bS,8aR,12aS,14aR,14bS)-11-cyano-2,2,6a,6b,9,9,12a-heptamethyl-10,14-dioxo-1,2,3,4,4a,5,6,6a,6b,7,8,8a,9,10,12a,14,14a,14b-octadecahydropicen-4a-yl)-2,2-difluoropropanamide]
[1]; brain, read-out: Drug content, Brain
  concentration at 6 h: 1080 nM
[1]; kidney, read-out: Drug content, Kidney
  concentration at 6 h: 1600 nM
[1]; liver, read-out: Drug content, Liver
  concentration at 6 h: 985 nM
[1]; lung, read-out: Drug content, Lung
  concentration at 6 h: 533 nM
[1]; plasma, read-out: Drug content, Plasma
  concentration at 6 h: 51 nM
[1]; whole blood, read-out: Drug content, Whole Blood
  concentration at 6 h: 679 nM
[2]; not viability normalized, read-out: NF-κB IC50, human A549 cell line (further experimentation)
  IC50: 1.7 µM
[2]; read-out: NF-κB IC50, human A549 cell line, viability normalized
  IC50: 1.7 µM
ovalbumin-induced asthma; 30 mg/kg
  B cells within the airways: significantly reduced the number and percentage of B cells within the airways
ovalbumin-induced asthma; 3 and 30 mg/kg
  Macrophages detected in the airways: significantly reduced the number of macrophages
Neurobehavioral measures; 30 mg/kg
  Body weight gain approximately 24 h after dosing: Slight decreases in body weight gain
Neurobehavioral measures; single oral dose up to and including 30 mg/kg
  Neurobehavioral endpoints: did not produce any adverse effects
[3]
  fraction unbound: < 0.01
[4]; 125 mg/kg, 24-h timepoint
  Change from Control (%): −8%
  Number of MPCE/1000 PCE (Mean +/− SD): 0.3 ± 0.27
  Number of MPCE/PCE Scored: 3/10000
  PCE/Total Erythrocytes (Mean +/− SD): 0.543 ± 0.03
[4]; 125 mg/kg, 48-h timepoint
  Change from Control (%): −14%
  Number of MPCE/1000 PCE (Mean +/− SD): 0.2 ± 0.27
  Number of MPCE/PCE Scored: 2/10000
  PCE/Total Erythrocytes (Mean +/− SD): 0.453 ± 0.03
[4]; 250 mg/kg, 24-h timepoint
  Change from Control (%): −12%
  Number of MPCE/1000 PCE (Mean +/− SD): 0.3 ± 0.27
  Number of MPCE/PCE Scored: 3/10000
  PCE/Total Erythrocytes (Mean +/− SD): 0.520 ± 0.06
[4]; 250 mg/kg, 48-h timepoint
  Change from Control (%): −26%
  Number of MPCE/1000 PCE (Mean +/− SD): 0.2 ± 0.27
  Number of MPCE/PCE Scored: 2/10000
  PCE/Total Erythrocytes (Mean +/− SD): 0.391 ± 0.02
[4]; 500 mg/kg, 24-h timepoint
  Change from Control (%): −28%
  Number of MPCE/1000 PCE (Mean +/− SD): 0.0 ± 0.00
  Number of MPCE/PCE Scored: 0/10000
  PCE/Total Erythrocytes (Mean +/− SD): 0.426 ± 0.07
[4]; 500 mg/kg, 48-h timepoint
  Change from Control (%): −36%
  Number of MPCE/1000 PCE (Mean +/− SD): 0.3 ± 0.45
  Number of MPCE/PCE Scored: 3/10000
  PCE/Total Erythrocytes (Mean +/− SD): 0.339 ± 0.05
[4]; 1000 mg/kg, 24-h timepoint
  Change from Control (%): −15%
  Number of MPCE/1000 PCE (Mean +/− SD): 0.2 ± 0.27
  Number of MPCE/PCE Scored: 2/10000
  PCE/Total Erythrocytes (Mean +/− SD): 0.498 ± 0.05
[4]; 1000 mg/kg, 48-h timepoint
  Change from Control (%): −35%
  Number of MPCE/1000 PCE (Mean +/− SD): 0.1 ± 0.22
  Number of MPCE/PCE Scored: 1/10000
  PCE/Total Erythrocytes (Mean +/− SD): 0.344 ± 0.04
[4]; 1500 mg/kg, 24-h timepoint
  Change from Control (%): −15%
  Number of MPCE/1000 PCE (Mean +/− SD): 0.4 ± 0.22
  Number of MPCE/PCE Scored: 4/10000
  PCE/Total Erythrocytes (Mean +/− SD): 0.499 ± 0.06
[4]; 1500 mg/kg, 48-h timepoint
  Change from Control (%): −39%
  Number of MPCE/1000 PCE (Mean +/− SD): 0.4 ± 0.42
  Number of MPCE/PCE Scored: 4/10000
  PCE/Total Erythrocytes (Mean +/− SD): 0.376 ± 0.05
[4]; 2000 mg/kg, 24-h timepoint
  Change from Control (%): −10%
  Number of MPCE/1000 PCE (Mean +/− SD): 0.2 ± 0.27
  Number of MPCE/PCE Scored: 2/10000
  PCE/Total Erythrocytes (Mean +/− SD): 0.531 ± 0.05
[4]; 2000 mg/kg, 48-h timepoint
  Change from Control (%): −32%
  Number of MPCE/1000 PCE (Mean +/− SD): 0.1 ± 0.22
  Number of MPCE/PCE Scored: 1/10000
  PCE/Total Erythrocytes (Mean +/− SD): 0.360 ± 0.03
[4]; 125-2000 mg/kg, 24-h and 48-h timepoints
  Genotoxicity in the In Vivo Micronucleus Study: 63415 is Negative for Genotoxicity in the In Vivo Micronucleus Study
[5]
  Concentration at which increases in NQO1 enzymatic activity were evident: 7.8 nM
CYP1A2
  inhibition at 3 µM: < 50%
[6]
  Cytotoxicity of 5-fluorouracil in combination: statistically significant increase in cytotoxicity when combined with RTA 408
[7]
  Inflammation and interstitial fibrosis (lung histology): no statistically significant effects were observed
[8]
  fraction unbound: 0.03
Pulmonary function
  Pulmonary endpoints (respiratory rate, tidal volume, minute volume): did not produce any adverse effects
